In article doi:10.1101/119818v1 (biorxiv, 2017) one finds IC50 data, which are given here for one compound.

The target of the experiment is T1, PARP3 (Homo sapiens, UniProt Q9Y6F1).
T1 sequence (Q9Y6F1 1-533): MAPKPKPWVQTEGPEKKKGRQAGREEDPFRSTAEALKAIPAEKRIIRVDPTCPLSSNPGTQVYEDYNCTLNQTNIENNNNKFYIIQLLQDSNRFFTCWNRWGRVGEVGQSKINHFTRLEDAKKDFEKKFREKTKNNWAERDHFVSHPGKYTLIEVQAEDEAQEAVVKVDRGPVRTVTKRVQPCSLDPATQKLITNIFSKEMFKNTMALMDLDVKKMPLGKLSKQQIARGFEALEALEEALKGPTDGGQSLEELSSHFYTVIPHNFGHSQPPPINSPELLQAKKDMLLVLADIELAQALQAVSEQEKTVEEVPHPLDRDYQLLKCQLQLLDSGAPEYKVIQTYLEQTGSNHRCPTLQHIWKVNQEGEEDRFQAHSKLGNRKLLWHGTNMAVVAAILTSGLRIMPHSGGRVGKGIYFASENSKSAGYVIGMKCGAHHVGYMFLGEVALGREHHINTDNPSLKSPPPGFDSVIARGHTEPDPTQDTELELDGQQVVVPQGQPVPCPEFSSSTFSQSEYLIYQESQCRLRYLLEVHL
The experiment is described as follows: in vitro enzymatic inhibition assay, concentration response. It counts as biochemical.

In general, IC50 refers to the concentration that gives 50% inhibition. A lower IC50 goes with greater potency in that assay.

Molecules are shown by their SMILES.

Consider `NC(=O)c1cccc2[nH]c(-c3ccc([C@@H]4CCCN4)cc3F)nc12` [A-966492], for which the IC50 came to 728 nM.
